Assay results as given in patent publication US11459313B2, “Aziridinyl and amino dimeric naphthoquinone compounds and use for acute myeloid leukemia” (University of Maryland, Baltimore, priority 2016, dated 2022).
“Also recorded” adds a separate entry of the source. Read-outs that look alike come from different tables or passages of the source.

Key:
[1] = system: MOLM-14 cells; test: WST-1 cell proliferation assay, MOLM-14; type: cell-based, human; conditions: Homo sapiens, cell proliferation
Procedure: (§1) Cell lines were seeded into 96-well plates the afternoon prior to treatment. Approximately 18 hours later, bis and mono-aziridine dimeric naphthoquinone compounds were semi-serially diluted in dimethyl sulfoxide (DMSO) and then growth medium, and added to cells. Plates were incubated for 72 hours prior to addition of WST-1 (Promega®). Plates were read after 4 additional hours of incubation at 37° C. using a Bio-Tek Synergy® HT plate reader (Bio-Tek®). Data were analyzed and graphed using GraphPad Prism® Software (Graph Pad®).
(§2) Primary AML cells from patients and cell lines were seeded into 96-well plates the afternoon prior to treatment. Eighteen hours later, amino-dimeric naphthoquinone Compounds 106, 101, and 114 were semi-serially diluted in dimethyl sulfoxide (DMSO) and then growth medium, and added to the cells. In order to quantitate proliferation of metabolically active cells, plates were incubated for 72 hours for cell lines and 48 hours for primary AML cells prior to addition of water-soluble tetrazolium (WST-1) (Clontech®). Plates were read after four additional hours of incubation at 37° C. using a Bio-Tek Synergy® HT plate reader (Bio-Tele®). Data were analyzed and graphed using GraphPad Prism® Software (GraphPad®). IC50 was defined as the concentration that decreases viable cell numbers by 50%. IC50 values were calculated as mean±standard deviation from at least two independent experiments. If availability of primary blasts was limited, the IC50 was obtained from a single experiment.
To investigate antiproliferative activity of amino-dimeric naphthoquinones against AML cells, an MTT-like cell proliferation assay was performed in the AML cell lines using WST-1 (water soluble tetrazolium salts; Promega®). MOLM-14 and AML-D cells, as well as normal hematopoietic bone marrow cells from a healthy donor, were exposed to a range of concentrations of Compound 101. Human leukemia cells were cultured in the presence of the compound for 72 hours (48 hours for primary cells) and WST-1 reagent was then added. The cells then were monitored for cell growth or the number of cells proliferating and the IC50 calculated. The IC50 is the concentration at which 50% of the cells are not proliferating compared to control cells treated with vehicle. See FIG. 2A, FIG. 2B, and FIG. 2C for representative graphs of these IC50 determinations.

[2] = system: MV4-11 cells; test: WST-1 cell proliferation assay, MV4-11; type: cell-based, human; conditions: Homo sapiens, cell proliferation
Procedure: as §1, §2

[3] = system: MV4-11 cells; test: Cell survival assay (trypan blue exclusion), MV4-11; type: cell-based, human
Procedure: MOLM-.14 and THP-1 cells were seeded in 96-well plates and treated with DMSO, mono- and bis-aziridinyl dimeric naphthoquinone compounds, or dimethylamine dimeric naphthoquinone Compound 114 as previously described. Cells were incubated for 72 hours, and then counted using trypan blue exclusion on the Countess® automated cell counter (Life Technologies®). Cell counts were performed in duplicates, and the averages were graphed using GraphPad Prism® software (GraphPad®).
Cell survival was determined using trypan blue exclusion as described above, in which cells are plated and the following day treated similarly to the proliferation assay. Compound 102 (also referred to here as “66”) was effective in decreasing cell number at increasing concentrations of compound in MV4-11 cells.

[4] = system: MV4-11 cells; test: Cellular reactive oxygen species (H2DCFA), MV4-11; type: cell-based, human
Procedure: MOLM-14 and THP-1 cells in logarithmic growth phase were centrifuged and resuspended in PBS at one million cells per milliliter (mL) of medium. Cells were preloaded with 2′,7′-dichlorodihydrofluorescein diacetate (H2DCFA, Life Technologies®) at a final concentration of 2 μM and incubated at 37° C. in the dark for 25 minutes. Cells were centrifuged and resuspended at one million per mL in phenol red-free RPMI plus 10% FBS and incubated at 37° C. in the dark for 25 minutes. Treatments were prepared at 2× concentrations of […] in complete phenol red-free RPMI and added to each well to yield 1× concentrations of 20, 10, 2, or 0.5 μM. Cells were incubated in the dark at 37° C. and measurement of ROS was performed with a Bio-tek® Synergy HT plate reader at various time points post treatment.
(§3) Two AML cell lines (MV4-11 & MOLM14) were treated with increasing doses of the clinically used naphthoquinones, atovaquone and vitamin K, as well as with Compound 102; and IC50 curves were generated with respect to cell proliferation as described above.
The amount of reactive oxygen species (ROS) that cells produced upon treatment with Compound 102 then was examined. See results in FIG. 9B. The cells were loaded with the ROS dye H2DCFA and subsequently plated into 96-well plates. […] The relative fluorescence units (RFU) were read at various time points. […]

[5] = target: IDO-1 (Homo sapiens, UniProt P14902); test: IDO1 activity assay; type: biochemical
Chain of IDO-1 (P14902 whole entry, species assumed): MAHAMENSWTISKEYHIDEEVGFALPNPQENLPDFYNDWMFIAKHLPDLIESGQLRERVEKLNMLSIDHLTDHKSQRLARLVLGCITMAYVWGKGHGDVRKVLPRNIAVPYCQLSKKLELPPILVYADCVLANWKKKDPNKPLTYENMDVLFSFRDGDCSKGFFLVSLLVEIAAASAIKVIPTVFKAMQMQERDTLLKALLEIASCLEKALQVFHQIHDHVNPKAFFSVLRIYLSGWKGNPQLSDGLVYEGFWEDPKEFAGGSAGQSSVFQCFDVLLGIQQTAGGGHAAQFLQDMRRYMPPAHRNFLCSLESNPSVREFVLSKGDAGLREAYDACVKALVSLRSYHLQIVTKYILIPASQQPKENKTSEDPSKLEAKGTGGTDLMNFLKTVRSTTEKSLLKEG
Excerpt: (§4) Methods were as described and according to known methods.

[6] = target: T1, IDO-2 (Homo sapiens, UniProt Q6ZQW0); test: IDO-2 activity; type: biochemical
T1 sequence (Q6ZQW0 1-407): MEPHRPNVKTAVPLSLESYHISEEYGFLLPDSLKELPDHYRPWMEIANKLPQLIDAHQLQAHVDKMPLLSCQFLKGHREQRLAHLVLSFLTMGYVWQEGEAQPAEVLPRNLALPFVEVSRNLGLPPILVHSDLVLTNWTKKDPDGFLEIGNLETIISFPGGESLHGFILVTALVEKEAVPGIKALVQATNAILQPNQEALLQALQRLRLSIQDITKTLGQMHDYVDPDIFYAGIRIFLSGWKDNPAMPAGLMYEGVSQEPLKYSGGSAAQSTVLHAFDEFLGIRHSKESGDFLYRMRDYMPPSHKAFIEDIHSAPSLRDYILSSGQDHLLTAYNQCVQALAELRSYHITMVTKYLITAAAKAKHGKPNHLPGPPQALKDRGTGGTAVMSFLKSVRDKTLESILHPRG
Excerpt: as §4

[7] = target: tryptophan-2,3-dioxygenase (TDO) (Homo sapiens, UniProt P48775); test: TDO activity; type: biochemical
Chain of tryptophan-2,3-dioxygenase (TDO) (P48775 whole entry, species assumed): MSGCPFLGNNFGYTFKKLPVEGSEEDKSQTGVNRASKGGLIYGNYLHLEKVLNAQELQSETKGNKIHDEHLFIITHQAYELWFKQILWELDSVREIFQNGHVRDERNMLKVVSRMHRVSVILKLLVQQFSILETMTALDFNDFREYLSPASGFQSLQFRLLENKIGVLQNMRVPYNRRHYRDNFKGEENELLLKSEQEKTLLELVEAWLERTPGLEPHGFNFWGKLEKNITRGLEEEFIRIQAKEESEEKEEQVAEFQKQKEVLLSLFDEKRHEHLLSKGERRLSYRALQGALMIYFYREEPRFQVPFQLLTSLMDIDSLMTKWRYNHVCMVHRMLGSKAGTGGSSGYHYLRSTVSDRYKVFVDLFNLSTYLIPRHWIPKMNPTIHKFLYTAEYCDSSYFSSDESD
Excerpt: as §4

[8] = system: AML cells; test: Cell proliferation assays, AML cells (lines not given singly); type: cell-based, human; conditions: MV4-11 and MOLM14, proliferation IC50
Procedure: as §2, §3

[9] = system: AML cells; test: Clonogenicity of AML cells; type: cell-based, human
Procedure: MOLM-14 and THP-1 were treated with either DMSO control or mono-aziridine dimeric naphthoquinone or bis-aziridinyl dimeric naphthoquinone compounds at concentrations of 0.1, 1, 10 and 100 μM (micromolar) for 24 hours. The cells then were washed with growth medium and resuspended in growth medium and methylcellulose with or without DMSO or the treatment compounds. After 7 or 13 days (MOLM-14 or THP-1, respectively), treatment was terminated by addition of 1.0 mg/mL, iodonitrotetrazolium chloride (INT; Sigma Aldrich®) and read 24 hours later with an automated colony counter (Symbiosis®). Data were analyzed and graphed using GraphPad Prism® software.
as §3

[10] = system: AML blasts; test: γH2AX foci in treated AML blasts; type: cell-based

## O=C1C(NCCO)=C(C2=C(NCCO)C(=O)c3ccccc3C2=O)C(=O)c2ccccc21 [Compound 102, 3,3′-[(2-hydroxyethyl)amino]-2,2′-binaphthalenyl-1,1′,4,4′-tetrone]
[1]; MOLM-14, Table 2, read-out: MOLM14 IC50
  IC50: 0.16 ± 0.01 µM
[1]; MOLM-14, Table 3, read-out: MOLM14 IC50
  IC50: 0.16 ± 0.01 µM
[1]; MOLM-14, Table 7, read-out: IC50 (μM) MOLM-14
  IC50: 0.16 µM
[2]; MV4-11, Table 2, read-out: MV411 IC50
  IC50: 0.2 ± 0.2 µM
[2]; MV4-11, Table 3, read-out: MV411 IC50
  IC50: 0.2 ± 0.2 µM
[2]; MV4-11, Table 7, read-out: IC50 (μM) MV411
  IC50: 0.2 µM
[3]
  cell survival, MV4-11: dose-dependent reduction in cell survival
[4]; Example 13, cells not named in the block, 2-6 hours
  ROS production: dose-dependent increase in ROS production
[4]; at IC50 concentration
  ROS levels, MV4-11: ROS levels significantly peaked after 2 hours and returned to baseline within 24 hours
[5]
  inhibition at 1 µM: 37%
  inhibition at 10 µM: 79%
[6]
  inhibition of IDO-2: not
[7]
  inhibition of TDO: not
[8]
  potency relative to other naphthoquinones (atovaquone, vitamin K) against AML cells: 25-30 fold
[9]
  inhibition of clonogenicity of AML cells: effectively inhibited clonogenicity of AML cells in a dose-dependent manner; also recorded: potent (nanomolar) inhibition of colony formation
[10]
  DNA damage (γH2AX foci): concomitant increase in DNA damage
